Reference: patent US20230364029A1, “POLYMORPHIC FORMS OF (R)-2-HYDROXY-2-METHYL-4-(2,4,5-TRIMETHYL-3,6-DIOXOCYCLOHEXA-1,4-DIENYL)BUTANAMIDE” (PTC THERAPEUTICS, INC., priority 2014, published 2023)
Converted amounts (≈) assume the structure as drawn.

Key:
Type in all cases: physicochemical
[1] = 7 day elevated aqueous humidity studies; settings: for Visual Observations 1 day / Visual Observations 7 day / XRPD [Pattern] 7 day: > 95 %RH at Ambient; for XRPD [Pattern] 7 day: form after 7 days; for Stability to elevated humidity: Example 8, summary statement
Method: 7 day elevated aqueous humidity experiments were performed on all Patterns A, B, C, D, E and F at ambient conditions at > 95%RH (Table 17). Approximately 30 mg of each pattern was weighed into a 4 ml glass vial. The uncovered 4 ml vial was inserted into a 20 ml scintillation vial half filled with water and capped. Following 24 hours of equilibration, visual inspection was performed to check for changes in physical appearance, however no change was observed.

[2] = Aqueous solubility (HPLC); settings: water, ambient conditions, 24 hours of equilibration
Method: Aqueous solubility of Patterns A, B, C, E and F was performed using an Agilent HPLC system. Approximately 10-20 mg of each form was charged to a 2 mL glass vial loaded with a magnetic stir bar and added 2 mL of water. The samples were allowed to stir overnight at ambient conditions. Following 24 hours of equilibration the samples were centrifuged and decanted into HPLC vials. A calibration curve was generated based on Pattern A in MeOH at 0.05, 0.1, 0.5 and 1.0 mg/mL. Following injection of the standard curve, the samples were run as is.

[3] = Moisture sorption analysis; settings: for XRPD following moisture sorption analysis: after 0-95% RH cycles at 25° C.; for Hygroscopicity: moisture sorption, 0-95% RH cycles; for Hygroscopicity / Water adsorbed / Hysteresis upon desorption: 25° C.; for Water adsorbed: at 95 %RH; for Hysteresis upon desorption: moisture sorption-desorption
Method: (§1) Moisture sorption analysis of the starting material was performed by equilibrating the sample at 25° C. and 50% RH to simulate ambient lab conditions. Humidity then decreased to 0% RH, increased from 0 to 95% RH, reduced from 95 to 0% RH, increased from 0 to 95 %RH and then decreased from 95 to 50% RH. Each point represents the estimated asymptotic weight for each humidity or weight. […] No hysteresis was observed upon desorption (FIG. 14).
as §1, with “of Pattern E (from” for “of”, “300 mg scale lot)” for “starting material”, “Humidity was” for “Humidity”, “19).” for “14).”
Moisture sorption analysis of Pattern C (300 mg lot) was performed by equilibrating the sample at 25° C. and 50% RH to simulate ambient lab conditions. Humidity was then decreased to 0% RH, increased from 0 to 95% RH, reduced from 95 to 0% RH, increased from 0 to 95%RH and then decreased from 95 to 50% RH. Each point represents the estimated asymptotic weight for each humidity or weight. […] This increased the total water to about 6% which is the water content of mono-hydrate. However, upon reducing the relative humidity, the solid lost its water. Therefore this could be a channel hydrate. No hysteresis was observed upon desorption (FIG. 24).
as §1, with “Pattern B (300 mg lot)” for “the starting material”, “The major weight loss at the beginning” for “No hysteresis”, “due to loss of solvent.” for “observed upon desorption (FIG. 14).”
as §1, with “Pattern F (from Example 6)” for “the starting material”, “Humidity was” for “Humidity”, “The major weight loss at the beginning is due to loss of solvent.” for “No hysteresis was observed upon desorption (FIG. 14).”

| Compound | Visual Observations 1 day [1] | Visual Observations 7 day [1] | XRPD [Pattern] 7 day [1] | XRPD [Pattern] 7 day ([1]; listed as B) | Solubility (aqueous) [2] [µg/mL] | XRPD following moisture sorption analysis [3] | Hygroscopicity [3] | Hygroscopicity ([3]; listed as Form IV) | XRPD [Pattern] 7 day ([1]; listed as C) | Stability to elevated humidity [1] | Total water after adsorption ([3]; at 95%RH) | Water adsorbed [3] [%] | Hysteresis upon desorption [3] | XRPD [Pattern] 7 day ([1]; listed as D) | XRPD [Pattern] 7 day ([1]; listed as E) | Hygroscopicity ([3]; listed as Form II) | XRPD [Pattern] 7 day ([1]; listed as F) | Hygroscopicity ([3]; listed as Form VI) |
| --- | --- | --- | --- | --- | --- | --- | --- | --- | --- | --- | --- | --- | --- | --- | --- | --- | --- | --- |
| CC1=C(C)C(=O)C(CC[C@@](C)(O)C(N)=O)=C(C)C1=O [Pattern B, (R)-2-hydroxy-2-methyl-4-(2,4,5-trimethyl-3,6-dioxocyclohexa-1,4-dienyl)butanamide] | Yellow solids | Yellow solids | mixture of Patterns A/B | Crystalline [Mixture of Patterns A/B] | 1300 (≈ 4.9 mM) | consistent with Pattern A | non-hygroscopic | non-hygroscopic | – | – | – | – | – | – | – | – | – | – |
| CC1=C(C)C(=O)C(CC[C@@](C)(O)C(N)=O)=C(C)C1=O [Pattern C, (R)-2-hydroxy-2-methyl-4-(2,4,5-trimethyl-3,6-dioxocyclohexa-1,4-dienyl)butanamide] | Yellow solids | Yellow solids | no change in form | – | 1320 (≈ 4.98 mM) | consistent with Pattern C | slightly hygroscopic | – | Crystalline [Pattern C] | stability to elevated humidity | about 6% | 2 | No hysteresis | – | – | – | – | – |
| CC1=C(C)C(=O)C(CC[C@@](C)(O)C(N)=O)=C(C)C1=O [Pattern D, (R)-2-hydroxy-2-methyl-4-(2,4,5-trimethyl-3,6-dioxocyclohexa-1,4-dienyl)butanamide] | Yellow solids | Yellow solids | mixture of Patterns D/B | – | – | – | – | – | – | – | – | – | – | Crystalline [Mixture of Patterns D/B] | – | – | – | – |
| CC1=C(C)C(=O)C(CC[C@@](C)(O)C(N)=O)=C(C)C1=O [Pattern E, (R)-2-hydroxy-2-methyl-4-(2,4,5-trimethyl-3,6-dioxocyclohexa-1,4-dienyl)butanamide] | Yellow solids | Yellow solids | no change in form | – | 1320 (≈ 4.98 mM) | consistent with Pattern E | non-hygroscopic | – | – | stability to elevated humidity | – | 0.2 | No hysteresis | – | Crystalline [Pattern E] | non-hygroscopic | – | – |
| CC1=C(C)C(=O)C(CC[C@@](C)(O)C(N)=O)=C(C)C1=O [Pattern F, (R)-2-hydroxy-2-methyl-4-(2,4,5-trimethyl-3,6-dioxocyclohexa-1,4-dienyl)butanamide] | Yellow solids | Yellow solids | converted to Pattern E | – | 1360 (≈ 5.13 mM) | consistent with Pattern E | non-hygroscopic | – | – | – | – | – | – | – | – | – | Crystalline [Pattern E] | non-hygroscopic |
